Laboratory results: patent US10098852B2 (LAUNX BIOMEDICAL CO., LTD., priority 2014, dated 2018)
Like-named read-outs stand apart in the source and are kept apart here.

How the values were obtained:
Assay type in all cases: cell-based
[1] = test system: H1650 (lung adenocarcinoma); experiment: Cell viability analysis (WST-1), lung cancer cell line H1650; conditions: Homo sapiens
Description: (§1) The cell numbers were counted and reseed as 2×10^6 in cell culture plate/flask. Then, the culture medium was added to a volume of 10 ml, and the cells were cultured for 2-3 days. Then, the cells were suspended for loading into 96-well plates. The cell number was 3000/well and the volume of the culture medium was 100 μl each well.
(§2) Removing the original culture medium from 96-well plate. Then add 100 μl of commercially drug at a concentration of 10 μM per well. After 72 hours, add the diluted WST-1 reagent to the well with 100 μl/well, and the diluted WST-1 reagent was acquired from the dilution of 9:1 medium and WST-1 stock reagent. Finally, the total volume of each well was 200 μl/well. Culture the 96-well plate at 37° C. for 30 to 90 minutes. Detecting and calculate the survival rate of each cancer cells with an ELISA reader at OD450 nm.

[2] = test system: TOV-21G (ovarian cancer cell line); experiment: Cell viability analysis (WST-1), ovarian cancer cell line TOV-21G; conditions: Homo sapiens, TOV21G
Description: as §1, §2

[3] = test system: MKN-45 (Gastric Adenocarcinoma); experiment: Cell viability analysis (WST-1), gastric cancer cell line MKN-45; conditions: Homo sapiens
[4] = test system: HepG2 (hepatocellular carcinoma); experiment: Cell viability analysis (WST-1), hepatic cancer cell line HepG2; conditions: Homo sapiens
Description: as §1, §2

[5] = test system: Hep3B (hepatocellular carcinoma); experiment: Cell viability analysis (WST-1), hepatic cancer cell line Hep3B; conditions: Homo sapiens
[6] = test system: LoVo (Colorectal Adenocarcinoma); experiment: Cell viability analysis (WST-1), colorectal cancer cell line LoVo; conditions: Homo sapiens
Description: as §1, §2

[7] = test system: SAS (Tongue squamous cell carcinoma); experiment: Cell viability analysis (WST-1), tongue cancer cell line SAS
Description: as §1, §2

[8] = test system: A375 (amelanotic melanoma); experiment: Cell viability analysis (WST-1), skin cancer cell line A375; conditions: Homo sapiens
Description: as §1, §2

[9] = test system: BCC (basal cell carcinoma); experiment: Cell viability analysis (WST-1), skin cancer cell line BCC
Description: as §1, §2

[10] = Cell viability analysis (WST-1), normal kidney cell line HEK293; conditions: human, HEK293 normal kidney cells
Description: as §1, §2

[11] = Cell viability analysis (WST-1), human fibroblast cell line HFW; conditions: HFW fibroblast cells (normal)
Description: as §1, §2

[12] = test system: lung cancer cell; experiment: Summary of the effect on lung cancer cell (A549, H1650); conditions: lung cancer cell (mean of A549 and H1650 averages), 72 hours, read-out: Inhibitory effect
Description: as §2

[13] = test system: bladder cancer cell; experiment: Summary of the effect on bladder cancer cell (TSGH, T24); conditions: bladder cancer cell (mean of TSGH and T24 averages), 72 hours, read-out: Inhibitory effect
Description: as §2

[14] = test system: prostate cancer cell; experiment: Summary of the effect on prostate cancer cell (PC-3, LNCap); conditions: Homo sapiens, prostate cancer cell (mean of PC-3 and LNCap averages), 72 hours, read-out: Inhibitory effect
Description: as §2

[15] = test system: breast cancer cell; experiment: Summary of the effect on breast cancer cell (MCF7, MDA-MB-231); conditions: breast cancer cell (mean of MCF7 and MDA-MB-231 averages), 72 hours, read-out: Inhibitory effect
Description: as §2

[16] = test system: ovarian cancer cell; experiment: Summary of the effect on ovarian cancer cell (NIH-OVCAR-3, TOV-21G); conditions: ovarian cancer cell (mean of NIH-OVCAR-3 and TOV-21G averages), 72 hours, read-out: Inhibitory effect
Description: as §2

[17] = test system: pancreatic cancer cell; experiment: Summary of the effect on pancreatic cancer cell (AsPC-1, BxPC-3); conditions: pancreatic cancer cell (mean of AsPC-1 and BxPC-3 averages), 72 hours, read-out: Inhibitory effect
Description: as §2

[18] = test system: skin cancer cell; experiment: Summary of the effect on skin cancer cell (A375, BCC); conditions: Homo sapiens, A-375, skin cancer cell (mean of A375 and BCC averages), 72 hours, read-out: Inhibitory effect
Description: as §2

[19] = test system: various cancer cells; experiment: Inhibition test on all kinds of cancer cells (overall statement); conditions: FIG. 1
Description: as §2

[20] = 72 h, average of 4 tests, read-out: inhibition effect (survival rate of cells), average
[21] = average of 4 tests, read-out: inhibition effect (survival rate of cells), average

Oc1ccc(OCc2ccccc2)cc1 [Monobenzone]
viability at 10 µM ([1]; NCI-H1650, 72 h, H1650, 10 μM, average of 4 tests, read-out: inhibition effect (survival rate of cells), Average): 86.3% | viability at 10 µM ([1]; NCI-H1650, H1650, 10 μM, 72 hours, test 1-10 min, read-out: inhibition effect (survival rate of cells)): 90.1% | viability at 10 µM ([1]; NCI-H1650, H1650, 10 μM, 72 hours, test 2-20 min, read-out: inhibition effect (survival rate of cells)): 66.6% | viability at 10 µM ([1]; NCI-H1650, H1650, 10 μM, 72 hours, test 3-20 min, read-out: inhibition effect (survival rate of cells)): 86.7% | viability at 10 µM ([1]; NCI-H1650, H1650, 10 μM, 72 hours, test 4-20 min, read-out: inhibition effect (survival rate of cells)): 102% | viability at 10 µM [2, 20]: 78.4% | viability at 10 µM ([2]; 72 hours, test 7-3-30 min, read-out: inhibition effect (survival rate of cells)): 93.9% | viability at 10 µM ([2]; 72 hours, test 7-4-30 min, read-out: inhibition effect (survival rate of cells)): 78.4% | viability at 10 µM ([2]; 72 hours, test 7-7-30 min, read-out: inhibition effect (survival rate of cells)): 69.6% | viability at 10 µM ([2]; 72 hours, test −4-30 min, read-out: inhibition effect (survival rate of cells)): 71.6% | viability at 10 µM ([3]; MKN-45, 72 h, MKN-45, 10 μM, average of 4 tests, read-out: inhibition effect (survival rate of cells), average): 97.2% | viability at 10 µM ([3]; MKN-45, MKN-45, 10 μM, 72 hours, test 0510-10 min, read-out: inhibition effect (survival rate of cells)): 89.2% | viability at 10 µM ([3]; MKN-45, MKN-45, 10 μM, 72 hours, test 0512-10 min, read-out: inhibition effect (survival rate of cells)): 107% | viability at 10 µM ([3]; MKN-45, MKN-45, 10 μM, 72 hours, test 0517-10 min, read-out: inhibition effect (survival rate of cells)): 91.3% | viability at 10 µM ([4]; HepG2, 72 h, HepG2, 10 μM, average of 4 tests, read-out: inhibition effect (survival rate of cells), average): 84.7% | viability at 10 µM ([4]; HepG2, HepG2, 10 μM, 72 hours, test 0524-20 min, read-out: inhibition effect (survival rate of cells)): 88.2% | viability at 10 µM ([4]; HepG2, HepG2, 10 μM, 72 hours, test 0526-20 min, read-out: inhibition effect (survival rate of cells)): 85.6% | viability at 10 µM ([4]; HepG2, HepG2, 10 μM, 72 hours, test 0529-20 min, read-out: inhibition effect (survival rate of cells)): 90.8% | viability at 10 µM ([4]; HepG2, HepG2, 10 μM, 72 hours, test 0531-20 min, read-out: inhibition effect (survival rate of cells)): 74.3% | viability at 10 µM [5, 20]: 106% | viability at 10 µM ([5]; 72 hours, test 0612-20 min, read-out: inhibition effect (survival rate of cells)): 111% | viability at 10 µM ([5]; 72 hours, test 0614-20 min, read-out: inhibition effect (survival rate of cells)): 116% | viability at 10 µM ([5]; 72 hours, test 0616-20 min, read-out: inhibition effect (survival rate of cells)): 96.8% | viability at 10 µM [6, 20]: 83% | viability at 10 µM ([6]; 72 hours, test 0616-10 min, read-out: inhibition effect (survival rate of cells)): 82.3% | viability at 10 µM ([6]; 72 hours, test 0619-10 min, read-out: inhibition effect (survival rate of cells)): 73.9% | viability at 10 µM ([6]; 72 hours, test 0621-10 min, read-out: inhibition effect (survival rate of cells)): 94.7% | viability at 10 µM ([6]; 72 hours, test 0623-10 min, read-out: inhibition effect (survival rate of cells)): 81.3% | viability at 10 µM ([7]; 72 h, SAS, average of 4 tests, read-out: inhibition effect (survival rate of cells), average): 90.3% | viability at 10 µM ([7]; 72 h, tongue cancer cell (SAS average), read-out: Inhibitory effect): 90.3% | viability at 10 µM ([7]; SAS, 72 hours, test 6-26-10 min, read-out: inhibition effect (survival rate of cells)): 97.3% | viability at 10 µM ([7]; SAS, 72 hours, test 6-28-10 min, read-out: inhibition effect (survival rate of cells)): 59.4% | viability at 10 µM ([7]; SAS, 72 hours, test 6-30-10 min, read-out: inhibition effect (survival rate of cells)): 89.6% | viability at 10 µM ([7]; SAS, 72 hours, test 7-3-10 min, read-out: inhibition effect (survival rate of cells)): 115% | viability at 10 µM ([8]; A-375, 72 h, A375, 10 μM, average of 4 tests, read-out: inhibition effect (survival rate of cells), Average): 76.4% | viability at 10 µM ([8]; A-375, A375, 10 μM, 72 hours, test 0602-30 min, read-out: inhibition effect (survival rate of cells)): 56.7% | viability at 10 µM ([8]; A-375, A375, 10 μM, 72 hours, test 0605-10 min, read-out: inhibition effect (survival rate of cells)): 64.8% | viability at 10 µM ([8]; A-375, A375, 10 μM, 72 hours, test 0607-10 min, read-out: inhibition effect (survival rate of cells)): 77.3% | viability at 10 µM ([8]; A-375, A375, 10 μM, 72 hours, test 0609-10 min, read-out: inhibition effect (survival rate of cells)): 107% | viability at 10 µM ([9]; 72 h, average of 4 tests, read-out: inhibition effect (survival rate of cells), Average): 50.1% | viability at 10 µM ([9]; 72 hours, test 0602-30 min, read-out: inhibition effect (survival rate of cells)): 48.2% | viability at 10 µM ([9]; 72 hours, test 0605-10 min, read-out: inhibition effect (survival rate of cells)): 59.8% | viability at 10 µM ([9]; 72 hours, test 0607-10 min, read-out: inhibition effect (survival rate of cells)): 38.6% | viability at 10 µM ([9]; 72 hours, test 0609-10 min, read-out: inhibition effect (survival rate of cells)): 53.8% | viability at 72 h, 10 µM [10, 21]: 93% | viability at 72 h, 10 µM ([10]; test 0602-30 min, read-out: inhibition effect (survival rate of cells)): 82.7% | viability at 72 h, 10 µM ([10]; test 0605-30 min, read-out: inhibition effect (survival rate of cells)): 99.4% | viability at 72 h, 10 µM ([10]; test 0607-30 min, read-out: inhibition effect (survival rate of cells)): 97.9% | viability at 72 h, 10 µM ([10]; test 0609-30 min, read-out: inhibition effect (survival rate of cells)): 91.8% | viability at 72 h, 10 µM [11, 21]: 85.4% | viability at 72 h, 10 µM ([11]; test 0612-10 min, read-out: inhibition effect (survival rate of cells)): 120% | viability at 72 h, 10 µM ([11]; test 0614-10 min, read-out: inhibition effect (survival rate of cells)): 74.9% | viability at 72 h, 10 µM ([11]; test 0616-10 min, read-out: inhibition effect (survival rate of cells)): 68.1% | viability at 72 h, 10 µM ([11]; test 0619-10 min, read-out: inhibition effect (survival rate of cells)): 79.1% | viability at 10 µM [12]: 89.8% | viability at 10 µM [13]: 85.8% | viability at 10 µM [14]: 65.2% | viability at 10 µM [15]: 87.9% | viability at 10 µM [16]: 85% | viability at 10 µM [17]: 86.8% | viability at 10 µM [18]: 63.2% | inhibitory effect and specificity on various cancer cells (in words) [19]: significant inhibitory effect and specificity on various cancer cells
